The conditions of this data set: HEPES pH 8.1, 47° C., 4 h.

Two substances from patent US20200345862A1, “TRANSITION METAL-BASED FUNCTIONAL MOIETIES FOR PREPARING CELL TARGETING CONJUGATES” (priority 2017, published 2020) can be followed below.

Where two headings read alike, the source gives them in different places.

Procedure: To a mixture of water (101 μL) and 200 mM HEPES buffer (12.3 μL, pH 8.1) containing different concentrations of halide salts (0, 100, 500, 1000, and 2000 mM NaCl (for 4a; pH 8.1; the final concentrations of NaCl in the reaction mixtures were 0, 10, 50, 100, and 200 mM, respectively) or 0, 100, and 500 mM NaBr (for 5d; pH 8.1; the final concentrations of NaBr in the reaction mixtures were 0, 10, and 50 mM, respectively) or 0 and 100 mM NaI (for 6k; pH 8.1; the final concentrations of NaI in the reaction mixtures were 0 and 10 mM, respectively), [PtL2((Fe)DFO-suc-pip)(ethane-1,2-diamine)]^+ TFA^− (4a (L2=Cl), 5d (L2=Br) or 6k (L2=I)) (10.0 μL, 5 mM in 20 mM NaCl (4a) or 5 mM in water (5d and 6k), 5.0 eq.) was added. The samples were incubated in a thermoshaker at 47° C. for 1 h, 2 h, and 4 h, followed by the HPLC analysis at 430 nm.

Regarding “[(Fe)DFO-pip-PtBr(ethane-1,2-diamine)]^+ TFA^− [5d]”, where the note is “[NaBr]=50 mM, FIG. 5”, the “concentration of the semi-final product after incubation (stability)” value is 95%. In the case of “[Pt((Fe)DFO-suc-pip)(ethane-1,2-diamine)I]^+ TFA^− [6k]”, the “concentration of the semi-final product after incubation (stability)” value ([NaI]=10 mM, FIG. 6) worked out at 98%.
